60 compounds from US20060252807A1, “Novel ortho-terphenyl inhibitors of p38 kinase and methods of treating inflammatory disorders” (Kalypsys, Inc., priority 2005, published 2006) can be followed below.

Each structure is given as a SMILES string.

T1 sequence (Q16539 whole entry): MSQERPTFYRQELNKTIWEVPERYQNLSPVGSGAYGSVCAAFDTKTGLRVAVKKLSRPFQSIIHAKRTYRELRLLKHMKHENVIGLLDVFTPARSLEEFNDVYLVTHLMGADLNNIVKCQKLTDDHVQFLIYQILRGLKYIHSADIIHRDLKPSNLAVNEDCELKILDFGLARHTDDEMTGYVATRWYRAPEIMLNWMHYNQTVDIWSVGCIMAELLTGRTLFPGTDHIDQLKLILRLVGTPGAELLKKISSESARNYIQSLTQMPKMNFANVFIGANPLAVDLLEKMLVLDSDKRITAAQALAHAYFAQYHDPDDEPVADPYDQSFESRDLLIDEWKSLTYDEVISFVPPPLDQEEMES

One assay concerns the target T1, active p38 alpha enzyme (Upstate Biotechnology) (Homo sapiens, UniProt Q16539).
T1 construct: purchased Upstate Biotechnology
The experiment in a line: p38α biochemical assay (ATP turnover, luminescent detection, Cambrex PKlight). Particulars: p38α biochemical assay, Table 1 Biological Activity. An outline of the steps: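 p38α + MapkapK2 (whole protein substrate) + 1.4 uM ATP final; Tris/MOPS buffer with MgCl2, CaCl2, EGTA, EDTA, glycerol, β-ME, BSA; 2 h at 30C; luminescent detection of remaining ATP.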
One may read the IC50 as the concentration that gives 50% inhibition. The low end stands for greater potency in that assay, the high end for weaker potency in that assay. Turning to `CC(C)NC(=O)c1csc(-c2c(-c3ccc(F)cc3)noc2CNC(=O)Cc2ccc(O)c(F)c2)n1` [Example 666], the IC50 is greater than 1000 nM.

As for `CC(C)NC(=O)c1csc(-c2oc(CNC(=O)c3ccc(Oc4cccc(O)c4)cc3)nc2-c2ccc(F)cc2)n1` [Example 312], the IC50 is no more than 1000 nM.

In turn, `CCC(=O)C(=O)NCc1nc(-c2ccc(F)cc2)c(-c2nc(C(=O)NC(C)C)cs2)o1` [Example 102] came in with an IC50 of no more than 1000 nM.

Compound `CCC(C)C(NC(=O)OC(C)(C)C)C(=O)N1CCN(Cc2nc(-c3ccc(F)cc3)c(-c3nc(C(=O)NC(C)C)cs3)o2)CC1` (stereo not drawn) [Example 565] had an IC50 greater than 1000 nM.

`CC(C)NC(=O)c1csc(-c2c(-c3ccc(F)cc3)noc2CNC(=O)c2ccc(Cl)c([N+](=O)[O-])c2)n1` [Example 749] gave an IC50 greater than 1000 nM.

Compound `CC(C)NC(=O)c1csc(-c2oc(CN3CCN(C(=O)c4cn(C)cn4)CC3)nc2-c2ccc(F)cc2)n1` [Example 354] displayed a half-inhibitory concentration (IC50) of no more than 1000 nM.

`Cc1ccc(F)cc1C(=O)NCc1nc(-c2ccc(F)cc2)c(-c2nc(C(=O)NC(C)C)cs2)o1` [Example 150] had a concentration for half-maximal inhibition (IC50) of no more than 1000 nM.

In turn, `CC(C)NC(=O)c1csc(-c2oc(CN3CCN(C(=O)c4c(Cl)cc(Cl)cc4Cl)CC3)nc2-c2ccc(F)cc2)n1` [Example 543] displayed a half-maximal inhibitory concentration (IC50) greater than 1000 nM.

Take `CC(C)NC(=O)c1csc(-c2oc(CN3CCN(C(=O)c4ccccc4[N+](=O)[O-])CC3)nc2-c2ccc(F)cc2)n1` [Example 421]: the concentration for half-maximal inhibition (IC50) was greater than 1000 nM.

With `CC(C)NC(=O)c1csc(-c2c(-c3ccc(F)cc3)noc2CNC(=O)c2cccnc2Cl)n1` [Example 628], the IC50 is greater than 1000 nM.

As for `COc1cc(OC)c(C(=O)NCc2nc(-c3ccc(F)cc3)c(-c3nc(C(=O)NC(C)C)cs3)o2)cc1OC` [Example 284], the concentration for half-maximal inhibition (IC50) was greater than 1000 nM.

In turn, `CC(C)NC(=O)c1csc(-c2oc(CN3CCN(C(=O)c4ccc(N(C)C=O)cc4)CC3)nc2-c2ccc(F)cc2)n1` [Example 447] came in with a concentration for half-maximal inhibition (IC50) of no more than 1000 nM.

The compound `CC(C)NC(=O)c1csc(-c2oc(CN3CCN(C(=O)c4ccc5c(c4)OCO5)CC3)nc2-c2ccc(F)cc2)n1` [Example 414] displayed an IC50 greater than 1000 nM.

`CC(C)NC(=O)c1csc(-c2oc(CN3CCN(C(=O)c4cc(Cl)ccc4Cl)CC3)nc2-c2ccc(F)cc2)n1` [Example 490] had a 50% inhibitory concentration (IC50) greater than 1000 nM.

`Cc1ccccc1OCC(=O)NCc1onc(-c2ccc(F)cc2)c1-c1nc(C(=O)NC(C)C)cs1` [Example 655] displayed an IC50 greater than 1000 nM.

The compound `CC(=O)c1cccc(C(=O)NCc2onc(-c3ccc(F)cc3)c2-c2nc(C(=O)NC(C)C)cs2)c1` [Example 644] came in with an IC50 greater than 1000 nM.

Turning to `CC(C)NC(=O)c1csc(-c2oc(CN3CCN(C(=O)C(C)c4ccc(-c5ccccc5)c(F)c4)CC3)nc2-c2ccc(F)cc2)n1` (stereo not drawn) [Example 561], the IC50 was greater than 1000 nM.

Consider `Cc1cccc(C(=O)NCc2nc(-c3ccc(F)cc3)c(-c3nc(C(=O)NC(C)C)cs3)o2)c1` [Example 121], for which the half-maximal inhibitory concentration (IC50) is greater than 1000 nM.

`CC(C)NC(=O)c1csc(-c2c(-c3ccc(F)cc3)noc2CNC(=O)Cc2ccc3c(c2)OCO3)n1` [Example 692]: the IC50 is greater than 1000 nM.

The compound `COc1cc(/C=C/C(=O)NCc2onc(-c3ccc(F)cc3)c2-c2nc(C(=O)NC(C)C)cs2)ccc1O` [Example 736] yielded an IC50 greater than 1000 nM.

The compound `Cc1cccc(C(=O)NCc2onc(-c3ccc(F)cc3)c2-c2nc(C(=O)NC(C)C)cs2)c1` [Example 596] yielded a half-maximal inhibitory concentration (IC50) greater than 1000 nM.

The same assay, now with this note: p38α kinase; Table 1 Biological Activity.
With `Cc1nc(-c2ccc(F)cc2)c(-c2nc(C(=O)NCc3ccc(F)c(F)c3)cs2)s1` [Example 1790], the half-inhibitory concentration (IC50) is no more than 1000 nM.

With `CC(=O)c1ccc(NC(=O)c2csc(-c3sc(C)nc3-c3ccc(F)cc3)n2)cc1` [Example 1984], the half-inhibitory concentration (IC50) is greater than 1000 nM.

As to `CC(C)NC(=O)c1csc(-c2c(-c3ccc(F)cc3)n[nH]c2C2CCN(C(=O)C(NC(=O)OC(C)(C)C)C(C)C)CC2)n1` (stereo not drawn) [Example 1013], the half-maximal inhibitory concentration (IC50) was greater than 1000 nM.

The compound `CC(C)NC(=O)c1csc(-c2oc(CN3CCN(c4ccc(C(C)(C)C)cc4)CC3)nc2-c2ccc(F)cc2)n1` [Example 1293] had an IC50 greater than 1000 nM.

For the compound `Cc1nc(-c2ccc(F)cc2)c(-c2nc(C(=O)N(CCc3ccccc3)Cc3ccccc3)cs2)s1` [Example 1937], the IC50 is greater than 1000 nM.

Take `Cc1nc(-c2ccc(F)cc2)c(-c2nc(C(=O)N3CCN(c4ccc(C)c(C)c4)CC3)cs2)s1` [Example 1917]: the IC50 is greater than 1000 nM.

The compound `Cc1nc(-c2ccc(F)cc2)c(-c2nc(C(=O)N[C@H](C)c3ccccc3)cs2)s1` [Example 1753] yielded a 50% inhibitory concentration (IC50) of no more than 1000 nM.

As for `CCN(C(=O)c1csc(-c2sc(C)nc2-c2ccc(F)cc2)n1)C1CCCCC1` [Example 1868], the half-maximal inhibitory concentration (IC50) was greater than 1000 nM.

Regarding `CC(C)NC(=O)c1csc(-c2c(-c3ccc(F)cc3)noc2CNc2ccc(OC(F)(F)F)cc2)n1` [Example 1686], the half-maximal inhibitory concentration (IC50) was greater than 1000 nM.

`Cc1nc(-c2ccc(F)cc2)c(-c2nc(C(=O)NCCCCO)cs2)s1` [Example 1730] gave a half-maximal inhibitory concentration (IC50) of no more than 1000 nM.

As to `Cc1nc(-c2ccc(F)cc2)c(-c2nc(C(=O)Nc3ccc(F)c(C(F)(F)F)c3)cs2)s1` [Example 2015], the IC50 was greater than 1000 nM.

The compound `Cc1nc(-c2ccc(F)cc2)c(-c2nc(C(=O)N3CCN(c4ccccc4Cl)CC3)cs2)s1` [Example 1952] displayed an IC50 greater than 1000 nM.

`CC(C)NC(=O)c1csc(-c2oc(CN(Cc3ccccc3)C(C)C)nc2-c2ccc(F)cc2)n1` [Example 1233] returned an IC50 greater than 1000 nM.

`CC(C)NC(=O)c1csc(-c2c(-c3ccc(F)cc3)noc2CN[C@H](CO)Cc2ccccc2)n1` [Example 1474] returned a concentration for half-maximal inhibition (IC50) greater than 1000 nM.

The compound `CC(C)NC(=O)c1csc(-c2c(-c3ccc(F)cc3)n[nH]c2C2CCN(C(=O)c3c(O)ccc4ccccc34)CC2)n1` [Example 957] returned an IC50 greater than 1000 nM.

For the compound `O=C(NCC(F)(F)F)c1csc(-c2c(-c3ccc(F)cc3)ncn2C2CCNCC2)n1` [Example 2185, 2-|5-(4-Fluoro-phenyl)-3-piperidin-4-yl-3H-imidazol-4-yl|-thiazole-4-carboxylic acid (2,2,2-trifluoro-ethyl)-amide], the half-inhibitory concentration (IC50) was no more than 1000 nM.

On to `COc1ccc(NC(=O)c2csc(-c3sc(C)nc3-c3ccc(F)cc3)n2)cc1OC` [Example 1702], for which the IC50 is no more than 1000 nM.

Compound `Cc1nc(-c2ccc(F)cc2)c(-c2nc(C(=O)N3CCN(c4ccc([N+](=O)[O-])cc4)CC3)cs2)s1` [Example 1933] came in with a 50% inhibitory concentration (IC50) greater than 1000 nM.

With `COc1cc(C(=O)N2CCC(c3[nH]nc(-c4ccc(F)cc4)c3-c3nc(C(=O)NC(C)C)cs3)CC2)c([N+](=O)[O-])cc1OC` [Example 1021], the 50% inhibitory concentration (IC50) is greater than 1000 nM.

`COc1cc(OC)c(C(=O)N2CCC(c3[nH]nc(-c4ccc(F)cc4)c3-c3nc(C(=O)NC(C)C)cs3)CC2)c(OC)c1` [Example 997]: the concentration for half-maximal inhibition (IC50) was greater than 1000 nM.

The compound `Cc1nc(-c2ccc(F)cc2)c(-c2nc(C(=O)NCCc3c[nH]c4ccccc34)cs2)s1` [Example 1809] showed an IC50 of no more than 1000 nM.

For the compound `Cc1nc(-c2ccc(F)cc2)c(-c2nc(C(=O)Nc3ccccc3C)cs2)s1` [Example 1958], the IC50 was greater than 1000 nM.

Compound `Cc1ccc(NCc2nc(-c3ccc(F)cc3)c(-c3nc(C(=O)NC(C)C)cs3)o2)c(C)c1` [Example 1322] yielded a half-maximal inhibitory concentration (IC50) greater than 1000 nM.

Regarding `CCC(C)NC(=O)c1csc(-c2c(-c3ccc(F)cc3)n[nH]c2C2CCNCC2)n1` (stereo not drawn) [Example 2039], the 50% inhibitory concentration (IC50) was no more than 1000 nM.

Consider `Cc1nc(-c2ccc(F)cc2)c(-c2nc(C(=O)N(C)CC(O)c3ccc(O)cc3)cs2)s1` (stereo not drawn) [Example 1897], for which the concentration for half-maximal inhibition (IC50) was greater than 1000 nM.

`CCOc1ccccc1C(=O)N1CCC(c2[nH]nc(-c3ccc(F)cc3)c2-c2nc(C(=O)NC(C)C)cs2)CC1` [Example 893]: the IC50 is greater than 1000 nM.

Regarding `COCCNCc1nc(-c2ccc(F)cc2)c(-c2nc(C(=O)NC(C)C)cs2)o1` [Example 1065], the IC50 is no more than 1000 nM.

`CC(C)NC(=O)c1csc(-c2oc(CNCc3cccnc3)nc2-c2ccc(F)cc2)n1` [Example 1085] gave an IC50 greater than 1000 nM.

Compound `CC(=O)N[C@H]1CCN(Cc2onc(-c3ccc(F)cc3)c2-c2nc(C(=O)NC(C)C)cs2)C1` [Example 1545] showed an IC50 greater than 1000 nM.

As to `O=C(NCc1ccccn1)c1csc(-c2c(-c3ccc(F)cc3)n[nH]c2C2CCNCC2)n1` [Example 2063], the IC50 is greater than 1000 nM.

For the compound `CC(=O)N1CCC(n2cnc(-c3ccc(F)cc3)c2-c2nc(C(=O)NC(C)C)cs2)CC1` [Example 2194, 2-|3-(1-Acetyl-piperidin-4-yl)-5-(4-fluoro-phenyl)-3H-imidazol-4-yl|-thiazole-4-carboxylic acid isopropylamide], the concentration for half-maximal inhibition (IC50) is no more than 1000 nM.

For `Cc1c(C(=O)N2CCC(c3[nH]nc(-c4ccc(F)cc4)c3-c3nc(C(=O)NC(C)C)cs3)CC2)oc2ccccc12` [Example 916], the half-inhibitory concentration (IC50) was no more than 1000 nM.

Consider `CC(C)NC(=O)c1csc(-c2oc(CN3CCN(c4ccc([N+](=O)[O-])cc4)CC3)nc2-c2ccc(F)cc2)n1` [Example 1282], for which the 50% inhibitory concentration (IC50) is greater than 1000 nM.

Compound `CC(C)NC(=O)c1csc(-c2c(-c3ccc(F)cc3)noc2CN2C[C@@H](C)N[C@@H](C)C2)n1` [Example 1535] showed a concentration for half-maximal inhibition (IC50) greater than 1000 nM.

The compound `CC(C)NC(=O)c1csc(-c2[nH][nH]c(=O)c2-c2ccc(F)cc2)n1` [Example 2180, 2-|4-(4-Fluoro-phenyl)-5-oxo-2,5-dihydro-1H-pyrazol-3-yl|-thiazole-4-carboxylic acid isopropylamide] returned an IC50 of no more than 1000 nM.

The compound `CC(C)NC(=O)c1csc(-c2oc(CNCCC3CCCN3C)nc2-c2ccc(F)cc2)n1` (stereo not drawn) [Example 1107] registered an IC50 greater than 1000 nM.

For `COCC(C)NC(=O)c1csc(-c2sc(C)nc2-c2ccc(F)cc2)n1` (stereo not drawn) [Example 1727], the IC50 was no more than 1000 nM.

On to `CCOc1cccc(NCc2onc(-c3ccc(F)cc3)c2-c2nc(C(=O)NC(C)C)cs2)c1` [Example 1664], for which the IC50 was greater than 1000 nM.

For the compound `CC(C)NC(=O)c1csc(-c2oc(CNCc3ccc(Cl)c(Cl)c3)nc2-c2ccc(F)cc2)n1` [Example 1168], the IC50 was greater than 1000 nM.
